Laboratory results taken from patent publication US10294202B2, “Pyrrolidinones as herbicides” (FMC Corporation, priority 2013, dated 2019).

Legend:
barnyardgrass [1] = experiment: Test A pre-/postemergence herbicide test; type: in vivo, Echinochloa crus-galli
How it was run: (§1)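 Visual 0–100 ratings (100 = complete control) made about 10 days after treatment, greenhouse-held plants compared with untreated controls. Treatments: postemergence sprays on one- to two-leaf plants (2–10 cm tall) and preemergence directed soil sprays after planting in loam–sand, chemicals formulated in non-phytotoxic solvent containing surfactant.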

kochia = experiment: Test A pre-/postemergence herbicide test; type: in vivo, Kochia scoparia; details: for Plant response rating, Kochia: 0 to 100 scale
How it was run: as §1

ragweed = experiment: Test A pre-/postemergence herbicide test; type: in vivo, Ambrosia elatior; details: for Plant response rating, Ragweed: 0 to 100 scale
How it was run: as §1

ryegrass, Italian = experiment: Test A pre-/postemergence herbicide test; type: in vivo, Lolium multiflorum; details: for Plant response rating, Ryegrass, Italian: 0 to 100 scale
How it was run: as §1

giant foxtail = experiment: Test A pre-/postemergence herbicide test; type: in vivo, Setaria faberii; details: for Plant response rating, Foxtail, Giant: 0 to 100 scale
How it was run: as §1

pigweed = experiment: Test A pre-/postemergence herbicide test; type: in vivo, Amaranthus retroflexus; details: for Plant response rating, Pigweed: 0 to 100 scale
How it was run: as §1

wheat = experiment: Test A pre-/postemergence herbicide test; type: in vivo, Triticum aestivum; details: Postemergence; for Plant response rating, Wheat: 125 g ai/ha, 0 to 100 scale, 0 is no effect, 100 is complete control; for Wheat plant response rating (0 to 100 scale, 0 is no effect, 100 is complete control): 500 g ai/ha
How it was run: as §1

corn = experiment: Test A pre-/postemergence herbicide test; type: in vivo, Zea mays; details: Postemergence; for Plant response rating, Corn: 125 g ai/ha, 0 to 100 scale, 0 is no effect, 100 is complete control; for Corn plant response rating (0 to 100 scale, 0 is no effect, 100 is complete control): 500 g ai/ha
How it was run: as §1

blackgrass = experiment: Test A postemergence herbicide test; type: in vivo, Alopecurus myosuroides; details: for Plant response rating, Blackgrass: 125 g ai/ha, 0 to 100 scale, 0 is no effect, 100 is complete control; for Blackgrass plant response rating (0 to 100 scale, 0 is no effect, 100 is complete control): 500 g ai/ha
How it was run: (§2)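 Blackgrass and galium grown in pots of loam soil–sand blend, treated postemergence at 2–10 cm height, one- to two-leaf stage. Plants kept in greenhouse ~10 days, then visually rated for injury against untreated controls on a 0–100 scale (0 no effect, 100 complete control).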

galium = experiment: Test A postemergence herbicide test; type: in vivo, Galium aparine; details: for Plant response rating, Galium: 125 g ai/ha, 0 to 100 scale, 0 is no effect, 100 is complete control; for Galium plant response rating (0 to 100 scale, 0 is no effect, 100 is complete control): 500 g ai/ha
How it was run: as §2

rice = experiment: Test B flooded paddy test; type: in vivo, Oryza sativa; details: 500 g ai/ha, Flood; scale of 0 to 100 where 0 is no effect and 100 is complete control
How it was run: (§3)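 Visual ratings from 0, meaning no effect, up to 100, meaning complete control, were made by comparison with untreated controls 13 to 15 days after treatment. Test compounds went straight into floodwater standing 3 cm over the soil of pots holding 2-leaf seedlings.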

sedge, umbrella = experiment: Test B flooded paddy test; type: in vivo, Cyperus difformis; details: 500 g ai/ha, Flood; scale of 0 to 100 where 0 is no effect and 100 is complete control
How it was run: as §3

ducksalad = experiment: Test B flooded paddy test; type: in vivo, Heteranthera limosa; details: 500 g ai/ha, Flood; scale of 0 to 100 where 0 is no effect and 100 is complete control
How it was run: as §3

barnyardgrass [2] = experiment: Test B flooded paddy test; type: in vivo, Echinochloa crus-galli; details: 500 g ai/ha, Flood; scale of 0 to 100 where 0 is no effect and 100 is complete control
How it was run: as §3

[3] = 125 g ai/ha, visual rating, 0 to 100 scale, 0 no effect, 100 complete control, approximately 10 days, preemergence
[4] = Postemergence, 125 g ai/ha, 0 to 100 scale, 0 is no effect, 100 is complete control
[5] = 125 g ai/ha, visual rating, 0 no effect, 100 complete control, approximately 10 days, preemergence
[6] = Postemergence, 125 g ai/ha, 0 is no effect, 100 is complete control
[7] = preemergence, 500 g ai/ha, 0 is no effect and 100 is complete control

Structure (SMILES)	Plant response rating, Barnyardgrass (barnyardgrass [1]; [3])	Plant response rating, Barnyardgrass (barnyardgrass [1]; [4])	Barnyardgrass plant response rating (0 to 100 scale, 0 is no effect, 100 is complete control) (barnyardgrass [1]; Postemergence, 500 g ai/ha)	Plant response rating, Kochia (kochia; [5])	Plant response rating, Kochia (kochia; [6])	Kochia plant response rating (0 to 100 scale, 0 is no effect, 100 is complete control) (kochia; Postemergence, 500 g ai/ha)	Plant response rating, Kochia (kochia; [7])	Plant response rating, Ragweed (ragweed; [5])	Plant response rating, Ragweed (ragweed; [6])	Ragweed plant response rating (0 to 100 scale, 0 is no effect, 100 is complete control) (ragweed; Postemergence, 500 g ai/ha)	Plant response rating, Ragweed (ragweed; [7])	Plant response rating, Ryegrass, Italian (ryegrass, Italian; [5])	Plant response rating, Ryegrass, Italian (ryegrass, Italian; [6])	Ryegrass, Italian plant response rating (0 to 100 scale, 0 is no effect, 100 is complete control) (ryegrass, Italian; Postemergence, 500 g ai/ha)	Plant response rating, Ryegrass, Italian (ryegrass, Italian; [7])	Plant response rating, Foxtail, Giant (giant foxtail; [5])	Plant response rating, Foxtail, Giant (giant foxtail; [6])	Foxtail, Giant plant response rating (0 to 100 scale, 0 is no effect, 100 is complete control) (giant foxtail; Postemergence, 500 g ai/ha)	Plant response rating, Pigweed (pigweed; [5])	Plant response rating, Pigweed (pigweed; [6])	also measured
O=C1NCC(c2cccc(C3CC3)c2)C1C(=O)Nc1cccc(F)c1F (racemic) [Compound 167]	90	90	90	20	30	50	60	0	20	50	50	20	20	40	70	90	90	90	50	0	Plant response rating, Barnyardgrass (barnyardgrass [1]; preemergence, 500 g ai/ha, 0 to 100 scale (0 no effect, 100 complete control)): 90; Plant response rating, Foxtail, Giant (giant foxtail; preemergence, 500 g ai/ha): 90; Pigweed plant response rating (0 to 100 scale, 0 is no effect, 100 is complete control) (pigweed; Postemergence, 500 g ai/ha): 0; Plant response rating, Pigweed (pigweed; [7]): 50; Plant response rating, Wheat (wheat): 0; Wheat plant response rating (0 to 100 scale, 0 is no effect, 100 is complete control) (wheat): 50; Plant response rating, Corn (corn): 0; Corn plant response rating (0 to 100 scale, 0 is no effect, 100 is complete control) (corn): 70; Plant response rating, Blackgrass (blackgrass): 50; Blackgrass plant response rating (0 to 100 scale, 0 is no effect, 100 is complete control) (blackgrass): 60; Plant response rating, Galium (galium): 50; Galium plant response rating (0 to 100 scale, 0 is no effect, 100 is complete control) (galium): 60; Plant response rating, Rice (rice): 10; Plant response rating, Sedge, Umbrella (sedge, umbrella): 0; Plant response rating, Ducksalad (ducksalad): 100; Plant response rating, Barnyardgrass (barnyardgrass [2]): 75
O=C1NCC(c2ccc(Cl)cc2)C1C(=O)Nc1ccccc1Cl (stereo not drawn) [Compound 220]	30	40	80	0	0	40	40	0	0	0	0	0	0	20	30	80	50	80	0	0	Plant response rating, Barnyardgrass (barnyardgrass [1]; preemergence, 500 g ai/ha, 0 to 100 scale, 0 is no effect and 100 is complete control): 80; Plant response rating, Foxtail, Giant (giant foxtail; [7]): 90; Pigweed plant response rating (0 to 100 scale, 0 is no effect, 100 is complete control) (pigweed; Postemergence, 500 g ai/ha): 0; Plant response rating, Pigweed (pigweed; [7]): 20; Plant response rating, Wheat (wheat): 0; Wheat plant response rating (0 to 100 scale, 0 is no effect, 100 is complete control) (wheat): 20; Plant response rating, Corn (corn): 0; Corn plant response rating (0 to 100 scale, 0 is no effect, 100 is complete control) (corn): 20; Plant response rating, Blackgrass (blackgrass): 0; Blackgrass plant response rating (0 to 100 scale, 0 is no effect, 100 is complete control) (blackgrass): 40; Plant response rating, Galium (galium): 0; Galium plant response rating (0 to 100 scale, 0 is no effect, 100 is complete control) (galium): 30; Plant response rating, Rice (rice): 0; Plant response rating, Sedge, Umbrella (sedge, umbrella): 0; Plant response rating, Ducksalad (ducksalad): 100; Plant response rating, Barnyardgrass (barnyardgrass [2]): 0
